# Source: ChEMBL document CHEMBL4130348, “Structure-activity relationship investigation for benzonaphthyridinone derivatives as novel potent Bruton's tyrosine kinase (BTK) irreversible inhibitors” (Eur J Med Chem, 2017)
# Activity calls are given as the source filed them. The rule behind the calls is not given here.
# Biological target: Tyrosine-protein kinase BTK (Homo sapiens, UniProt Q06187)
# Experiment: Irreversible binding affinity to recombinant full length His-tagged human BTK expressed in baculovirus expression system assessed as modification of Cys481 residue containing fragment at 100 uM after 1 hr by LC/MS-MS method
# Sequence of Tyrosine-protein kinase BTK (Q06187 whole entry, the tested form may be a part): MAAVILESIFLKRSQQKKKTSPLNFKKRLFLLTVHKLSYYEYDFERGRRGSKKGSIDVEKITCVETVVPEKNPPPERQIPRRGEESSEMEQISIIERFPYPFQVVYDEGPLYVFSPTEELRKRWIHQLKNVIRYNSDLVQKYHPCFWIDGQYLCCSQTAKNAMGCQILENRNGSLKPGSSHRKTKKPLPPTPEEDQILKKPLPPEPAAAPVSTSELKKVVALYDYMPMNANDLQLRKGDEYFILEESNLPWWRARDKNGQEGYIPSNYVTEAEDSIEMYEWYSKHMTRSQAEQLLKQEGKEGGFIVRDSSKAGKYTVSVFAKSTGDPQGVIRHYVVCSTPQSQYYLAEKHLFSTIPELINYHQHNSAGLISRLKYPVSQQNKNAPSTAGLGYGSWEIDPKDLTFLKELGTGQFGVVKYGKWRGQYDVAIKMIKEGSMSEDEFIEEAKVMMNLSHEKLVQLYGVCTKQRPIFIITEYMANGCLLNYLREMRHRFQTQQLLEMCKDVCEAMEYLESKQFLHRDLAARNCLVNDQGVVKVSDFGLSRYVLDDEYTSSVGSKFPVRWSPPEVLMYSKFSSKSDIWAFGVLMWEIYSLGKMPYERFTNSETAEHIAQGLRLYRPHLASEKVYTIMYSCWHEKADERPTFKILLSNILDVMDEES
compound,measurement,value
C=CC(=O)Nc1cc(-n2c(=O)ccc3cnc4ccc(-n5cccn5)cc4c32)ccc1C,Activity,Active
